Key:
surinam grass = experiment: Test B pre/postemergence surinam grass; type: in vivo, Brachiaria decumbens
Method in brief: (§1)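 Herbicidal effect was estimated by eye on a ten-point control scale after plants spent twelve to sixteen days in a greenhouse following soil or foliar treatment. Foliar sprays targeted plants at one to four leaves; all doses were formulated in a non-phytotoxic solvent with surfactant.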

rape = experiment: Test B pre/postemergence rape; type: in vivo, Brassica napus
Method in brief: as §1

wheat = experiment: Test B pre/postemergence wheat; type: in vivo, Triticum aestivum
Method in brief: as §1

crabgrass = experiment: Test B pre/postemergence crabgrass; type: in vivo, Digitaria sanguinalis
Method in brief: as §1

blackgrass = experiment: Test B pre/postemergence blackgrass; type: in vivo, Alopecurus myosuroides
Method in brief: as §1

smallflower flatsedge = experiment: Test B flood test smallflower flatsedge; type: in vivo, Cyperus difformis
Method in brief: (§2)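 Flood test on plants grown to the 2-leaf stage; treated plants kept in greenhouse twelve to sixteen days, then visually rated against controls on a 0 (no effect) to 10 (complete control) scale.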

soybean = experiment: Test B pre/postemergence soybean; type: in vivo, Glycine max
Method in brief: as §1

cocklebur = experiment: Test B pre/postemergence cocklebur; type: in vivo, Xanthium strumarium
Method in brief: as §1

bamyardgrass = experiment: Test B flood test barnyardgrass; type: in vivo, Echinochloa crus-galli
Method in brief: as §2

sugar beet = experiment: Test B pre/postemergence sugar beet; type: in vivo, Beta vulgaris
Method in brief: as §1

corn = experiment: Test B pre/postemergence corn; type: in vivo, Zea mays
Method in brief: as §1

pigweed = experiment: Test B pre/postemergence pigweed; type: in vivo, Amaranthus retroflexus
Method in brief: as §1

velvetleaf = experiment: Test B pre/postemergence velvetleaf; type: in vivo, Abutilon theophrasti
Method in brief: as §1

purple nutsedge = experiment: Test B pre/postemergence purple nutsedge; type: in vivo, Cyperus rotundus
Method in brief: as §1

wild oat = experiment: Test B pre/postemergence wild oat; type: in vivo, Avena fatua
Method in brief: as §1

bedstraw = experiment: Test B pre/postemergence bedstraw; type: in vivo, Galium aparine
Method in brief: as §1

[1] = Preemergence, Rate 31 g/ha, visual rating, scale 0 to 10 (0 no effect, 10 complete control)
[2] = Preemergence, Rate 62 g/ha, scale of 0 to 10 where 0 is no effect and 10 is complete control
[3] = Rate 16 g/ha, Postemergence, scale 0 to 10, 0 no effect, 10 complete control
[4] = Rate 16 g/ha, Preemergence, scale 0 to 10, 0 no effect, 10 complete control
[5] = Rate 31 g/ha, Postemergence, scale 0 to 10
[6] = Rate 62 g/ha, Postemergence, scale 0 to 10 (0 no effect, 10 complete control)
[7] = Rate 125 g/ha, Postemergence, scale of 0 to 10 where 0 is no effect and 10 is complete control
[8] = Rate 125 g/ha, Preemergence, scale of 0 to 10 where 0 is no effect and 10 is complete control
[9] = Rate 16 g/ha, head printed Pre-emergence (flood test species), scale 0 to 10, 0 no effect, 10 complete control
[10] = Rate 31 g/ha, Pre-emergence section (flood test species), scale 0 to 10
[11] = Rate 62 g/ha, headed Pre-emergence (flood test species), scale 0 to 10 (0 no effect, 10 complete control)
[12] = Rate 125 g/ha, Pre-emergence, flood test species, scale 0 to 10 where 0 is no effect and 10 is complete control

CC(C)N(C(=O)n1oc(=O)n(CCCF)c1=O)c1ccc(F)cc1 [Compound 287]
B. signalgrass plant response rating (surinam grass; [1]): 3
B. signalgrass plant response rating (surinam grass; [2]): 6
B. signalgrass plant response rating (surinam grass; [3]): 0
B. signalgrass plant response rating (surinam grass; [4]): 0
B. signalgrass plant response rating (surinam grass; [5]): 0
B. signalgrass plant response rating (surinam grass; [6]): 0
B. signalgrass plant response rating (surinam grass; [7]): 2
B. signalgrass plant response rating (surinam grass; [8]): 10
Rape plant response rating (rape; [1]): 4
Rape plant response rating (rape; [2]): 4
Rape plant response rating (rape; [3]): 0
Rape plant response rating (rape; [4]): 0
Rape plant response rating (rape; [5]): 0
Rape plant response rating (rape; [6]): 0
Rape plant response rating (rape; [7]): 0
Rape plant response rating (rape; [8]): 8
Wheat plant response rating (wheat; [1]): 0
Wheat plant response rating (wheat; [2]): 0
Wheat plant response rating (wheat; [3]): 0
Wheat plant response rating (wheat; [4]): 0
Wheat plant response rating (wheat; [6]): 5
Wheat plant response rating (wheat; [7]): 5
Wheat plant response rating (wheat; [8]): 7
Crabgrass plant response rating (crabgrass; [1]): 2
Crabgrass plant response rating (crabgrass; [2]): 8
Crabgrass plant response rating (crabgrass; [3]): 0
Crabgrass plant response rating (crabgrass; [4]): 0
Crabgrass plant response rating (crabgrass; [5]): 2
Crabgrass plant response rating (crabgrass; [6]): 2
Crabgrass plant response rating (crabgrass; [7]): 5
Crabgrass plant response rating (crabgrass; [8]): 9
Blackgrass plant response rating (blackgrass; [1]): 7
Blackgrass plant response rating (blackgrass; [2]): 10
Blackgrass plant response rating (blackgrass; [3]): 0
Blackgrass plant response rating (blackgrass; [4]): 0
Blackgrass plant response rating (blackgrass; [5]): 8
Blackgrass plant response rating (blackgrass; [6]): 8
Blackgrass plant response rating (blackgrass; [7]): 9
Blackgrass plant response rating (blackgrass; [8]): 10
S. Flatsedge plant response rating (smallflower flatsedge; [9]): 0
S. Flatsedge plant response rating (smallflower flatsedge; [10]): 0
S. Flatsedge plant response rating (smallflower flatsedge; [11]): 0
S. Flatsedge plant response rating (smallflower flatsedge; [12]): 0
Soybean plant response rating (soybean; [1]): 0
Soybean plant response rating (soybean; [2]): 0
Soybean plant response rating (soybean; [3]): 1
Soybean plant response rating (soybean; [4]): 0
Soybean plant response rating (soybean; [6]): 1
Soybean plant response rating (soybean; [7]): 3
Soybean plant response rating (soybean; [8]): 6
Cocklebur plant response rating (cocklebur; [1]): 0
Cocklebur plant response rating (cocklebur; [2]): 0
Cocklebur plant response rating (cocklebur; [3]): 0
Cocklebur plant response rating (cocklebur; [4]): 0
Cocklebur plant response rating (cocklebur; [5]): 0
Cocklebur plant response rating (cocklebur; [6]): 0
Cocklebur plant response rating (cocklebur; [7]): 1
Cocklebur plant response rating (cocklebur; [8]): 0
Barnyardgrass plant response rating (bamyardgrass; [9]): 0
Barnyardgrass plant response rating (bamyardgrass; [10]): 0
Barnyardgrass plant response rating (bamyardgrass; [11]): 0
Barnyardgrass plant response rating (bamyardgrass; [12]): 0
Sugarbeets plant response rating (sugar beet; [1]): 0
Sugarbeets plant response rating (sugar beet; [2]): 3
Sugarbeets plant response rating (sugar beet; [3]): 0
Sugarbeets plant response rating (sugar beet; [4]): 0
Sugarbeets plant response rating (sugar beet; [6]): 0
Sugarbeets plant response rating (sugar beet; [7]): 0
Sugarbeets plant response rating (sugar beet; [8]): 6
Corn plant response rating (corn; [1]): 0
Corn plant response rating (corn; [2]): 0
Corn plant response rating (corn; [3]): 0
Corn plant response rating (corn; [4]): 0
Corn plant response rating (corn; [5]): 0
Corn plant response rating (corn; [6]): 0
Corn plant response rating (corn; [7]): 0
Corn plant response rating (corn; [8]): 0
Redroot pigweed plant response rating (pigweed; [1]): 4
Redroot pigweed plant response rating (pigweed; [2]): 5
Redroot pigweed plant response rating (pigweed; [3]): 0
Redroot pigweed plant response rating (pigweed; [4]): 0
Redroot pigweed plant response rating (pigweed; [5]): 0
Redroot pigweed plant response rating (pigweed; [6]): 2
Redroot pigweed plant response rating (pigweed; [7]): 6
Redroot pigweed plant response rating (pigweed; [8]): 8
Velvetleaf plant response rating (velvetleaf; [1]): 3
Velvetleaf plant response rating (velvetleaf; [2]): 6
Velvetleaf plant response rating (velvetleaf; [3]): 0
Velvetleaf plant response rating (velvetleaf; [4]): 1
Velvetleaf plant response rating (velvetleaf; [6]): 0
Velvetleaf plant response rating (velvetleaf; [7]): 4
Velvetleaf plant response rating (velvetleaf; [8]): 7
Nutsedge plant response rating (purple nutsedge; [1]): 0
Nutsedge plant response rating (purple nutsedge; [2]): 0
Nutsedge plant response rating (purple nutsedge; [3]): 0
Nutsedge plant response rating (purple nutsedge; [4]): 0
Nutsedge plant response rating (purple nutsedge; [5]): 5
Nutsedge plant response rating (purple nutsedge; [6]): 6
Nutsedge plant response rating (purple nutsedge; [7]): 6
Nutsedge plant response rating (purple nutsedge; [8]): 6
Wild oats plant response rating (wild oat; [1]): 1
Wild oats plant response rating (wild oat; [2]): 8
Wild oats plant response rating (wild oat; [3]): 0
Wild oats plant response rating (wild oat; [4]): 0
Wild oats plant response rating (wild oat; [6]): 2
Wild oats plant response rating (wild oat; [7]): 3
Bedstraw plant response rating (bedstraw; [1]): 4
Bedstraw plant response rating (bedstraw; [2]): 9
Bedstraw plant response rating (bedstraw; [3]): 0
Bedstraw plant response rating (bedstraw; [4]): 0
Bedstraw plant response rating (bedstraw; [5]): 0
Bedstraw plant response rating (bedstraw; [6]): 4
Bedstraw plant response rating (bedstraw; [7]): 8
Bedstraw plant response rating (bedstraw; [8]): 10

From patent US6737383B1, “Herbicidal oxadiazolidines” (priority 1999, dated 2004)
